Legend:
[1] = test system: passive cutaneous anaphylaxis (PCA), ovalbumin challenge; test: Passive cutaneous anaphylaxis (PCA) in rats; type: in vivo, Male Wistar rats; settings: S.C., PBS with NaHCO3, rat
Protocol: Serum containing heat labile homocytotropic anitbody was raised in rats to crystallized ovalbumin XOA by the method of Mota (I. Mota, Immunology, 7,681 [1964]) using Bordettela pertussis vaccine as adjuvant.
Passive cutaneous anaphylaxis (PCA) was carried out by a method based on that of Ovary and Bier, (A. Ovary and O. G. Bier, Proc. Soc. Exp. Biol. Med. 81, 584, [1952]) as modified by Goose and Blair. (Immunology 16, 749 (1969).
Male Wistar rats of 250-300 g. were given 0.1 ml. of each of six twofold serial dilutions of pooled antiserum in 0.9% saline injected intradermally into separate sites on their shaved backs. Later (72 hrs.) the animals were challenged by intravenous injection of 0.3 ml. of a 1% solution of ovalbumin in an isotonic solution of saline buffered with 0.05 M, pH 7.2, Sorenson Buffer (PBS), mixed with 0.2 ml. of a 5% solution of Pontamine Sky Blue (6BX C.I. 24410, Raymond A. Lamb, London) in isotonic saline. The rats were killed after 20 min and the diameter of the blue wheals at the antibody injection sites was measured on the outer surface of the skin. The starting dilution of the serum was adjusted so that there was no response, after challenge, at the injection site of the highest dilution and a maximum response at the lowest dilutions. Typically six twofold serial dilutions of the serum from 1/4 to 1/128 were used.
Compounds were tested for their ability to reduce the diameter of the wheals at those intradermal sites which in control animals gave less than maximum response. Each dose of the compound was administered to six rats at a measured time prior to intravenous challenge with ovalbumin. Control groups of six rats were given the same volume of carrier fluid (0.2 ml, 100 g^-1) at the same time prior to challenge.
The results were calculated as follows: % inhibition of PCA=100 (1-a/b) where a=the sum of the diameters of the wheals produced in the test animal at the sites of antibody dilutions as used in control groups and b=the mean sum of the diameters of the wheals produced in the control group of animals at those antibody sites where at least five out of six of the animals gave less than maximum response. A typical variations in the control group of animals was SEM±6%.

Oral LD50 toxicity = type: in vivo; settings: rat, in vivo, Charles River Sprage Dawley CD strain male rats
Text: (§1) Toxicity: Oral LD50 of the compound of example 1(d) in Charles River Sprage Dawley CD strain Male Rats: 980 mgkg^-1. LD50 data confidence limits: 95%, 548-1,413 mgkg^-1.

[2] = test system: Charles River Sprage Dawley CD strain Male Rats; test: Oral LD50 toxicity; type: in vivo; settings: 95% confidence limits
Text: as §1

With `O=C1c2ccc(F)cc2C(=O)c2[nH]nnc21` [5(e), 4,9-Dihydro-4,9-dioxo-6-fluoro-1H-naphtho[2,3-d]-triazole] the “% Inhib PCA” value ([1]; 10 mins, 20 mg/kg) was 90% and the “% Inhib PCA” value ([1]; 30 mins, 20 mg/kg) was 27%.

With `O=C1c2ccccc2C(=O)c2[nH]nnc21` [Example 8, 4,9-Dihydro-4,9-dioxo-1H-naphtho[2,3-d]-triazole] the “% Inhib PCA” value ([1]; 5 mins, 1 mg/kg) was 39% and the “% Inhib PCA” value ([1]; 5 mins, 2 mg/kg) was 82%.

In the case of `Cc1cc2c(cc1C)C(=O)c1[nH]nnc1C2=O` [1(d), 4,9-dihydro-6,7-dimethyl-4,9-dioxo-1H-naphtho[2,3-d]-triazole], the “% Inhib PCA” value ([1]; 5 mins, 0.1 mg/kg) is reported as 30%, the “% Inhib PCA” value ([1]; 5 mins, 0.2 mg/kg) is reported as 54% and the “% Inhib PCA” value ([1]; 5 mins, 0.4 mg/kg) is reported as 61%. The “% Inhib PCA” value ([1]; 5 mins, 0.8 mg/kg) was 86%, the LD50 (Oral LD50 toxicity) was 980 mg/kg and the “LD50 data confidence limits: 95%” value [2] was 548-1,413 mgkg^-1.

For `O=C1c2cccc([N+](=O)[O-])c2C(=O)c2[nH]nnc21` [Example 4, 4,9-Dihydro-4,9-dioxo-5-nitro-1H-naphtho-[2,3-d]-triazole], the “% Inhib PCA” value ([1]; 10 mins, 10 mg/kg) was 44% and the “% Inhib PCA” value ([1]; 30 mins, 10 mg/kg) was 19%.

With `Cc1cc2c(c([N+](=O)[O-])c1C)C(=O)c1nn[nH]c1C2=O` [Example 6, 4,9-Dihydro-6,7-dimethyl-4,9-dioxo-5-nitronaphtho[2,3-d]-triazole] the “% Inhib PCA” value ([1]; 10 mins, 1 mg/kg) was 66% and the “% Inhib PCA” value ([1]; 30 mins, 1 mg/kg) was 28%.

For `Cc1ccc2c(c1)C(=O)c1nn[nH]c1C2=O` [2(d), 4,9-Dihydro-4,9-dioxo-6methyl-1H-naphtho[2,3-d]-triazole], the “% Inhib PCA” value ([1]; 10 mins, 20 mg/kg) was 73% and the “% Inhib PCA” value ([1]; 30 mins, 20 mg/kg) was 57%.

With `COc1ccc2c(c1)C(=O)c1nn[nH]c1C2=O` [3(e), 4,9-Dihydro-4,9-dioxo-6-methoxy-1H-naphtho[2,3-d]-triazole] the “% Inhib PCA” value ([1]; 10 mins, 20 mg/kg) was 61% and the “% Inhib PCA” value ([1]; 30 mins, 20 mg/kg) was 34%.

Reference: patent publication US4263309A, “Polycyclic triazoles used to inhibit allergic responses” (Beecham Group Limited, priority 1977, dated 1981)
